In PubChem BioAssay AID608 (Sanford-Burnham Center for Chemical Genomics, 2007):
“And” between values parts separate entries of the source, which are not always exact repeats. Equal entries are not always repeated. The source made the active and inactive calls. No rule for the calls is given here.

Molecular target: Peptidyl-prolyl cis-trans isomerase FKBP1A (Homo sapiens) (UniProt P62942)
Assay: small-molecule binding to FKBP12 – biophysical, NMR detection (AID 608)
Settings: purified FKBP12

Chain of Peptidyl-prolyl cis-trans isomerase FKBP1A (Homo sapiens) (P62942 whole entry, looked up): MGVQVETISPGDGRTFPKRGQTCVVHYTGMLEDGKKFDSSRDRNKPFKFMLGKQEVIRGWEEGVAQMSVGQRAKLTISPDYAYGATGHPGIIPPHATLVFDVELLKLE

Row | SMILES | Kd
1 | S=c1[nH]cnc2sccc12 | > 4 mM (inactive)
2 | OCc1ccc2c(c1)OCCCO2 | > 4 mM (inactive)
3 | CC(C)c1ccc2c(c1)CCC1[C@](C)(CN)CCC[C@]21C (stereo partly drawn) | > 4 mM (inactive)
4 | NC1CCN(Cc2ccccc2)CC1 | > 4 mM (inactive)
5 | O=c1[nH]cc(COCc2ccccc2)c(=O)[nH]1 | > 4 mM (inactive)
6 | C[C@]12CCC(=O)C=C1CCC1C2C(=O)C[C@@]2(C)C1CC[C@]2(O)C(=O)CO (stereo partly drawn) | > 4 mM (inactive)
7 | COc1cc(-c2coc3cc(OCc4ccccc4)c(OC)c(O)c3c2=O)cc(O)c1OC | > 4 mM (inactive)
8 | Nc1nc(-c2ccc(Cl)cc2)nn1C(=O)c1cccnc1 | > 4 mM (inactive)
9 | S=C(NCc1cccnc1)NC1CC1 | > 4 mM (inactive)
10 | CN(C)C(=O)CSc1nc(N)cc(=O)[nH]1 | > 4 mM (inactive)
11 | CC(=O)OCC(=O)[C@@]1(O)CCC2C3CC[C@@H]4C[C@H](OC(C)=O)CC[C@]4(C)C3C(=O)C[C@@]21C (stereo partly drawn) | > 4 mM (inactive)
12 | O=C(COc1ccc(F)cc1)N1CCOCC1 | inactive
13 | O=C(O)/C=C/C=C/c1ccccc1 | > 4 mM (inactive)
14 | NC(=O)C12CC3CC(C1)C(=O)C(C3)C2 | > 4 mM (inactive)
15 | O=C(O)c1ccc(N2CCOCC2)cc1 | > 4 mM (inactive)
16 | CC12CCCC(O)(C1)C1CC(C)(C)C1CC2 (stereo not drawn) | > 4 mM (inactive)
17 | O=C1C(=O)N(CNc2ncccn2)c2ccccc21 | > 4 mM (inactive)
18 | Cc1noc(C)c1C(=O)NCc1ccco1 | > 4 mM (inactive)
19 | CN(C(=O)NC1CCS(=O)(=O)C1)C1CCCCC1 (stereo not drawn) | > 4 mM (inactive)
20 | O=C(Nc1nnc(C(F)(F)F)s1)c1cccnc1 | > 4 mM (inactive)
21 | O=C1CN(C(=O)CN2CCOCC2)c2ccccc2N1 | > 4 mM (inactive)
22 | Cc1c(N=CN(C)C)c(=O)n(-c2ccccc2)n1C | > 4 mM (inactive)
23 | O=C1NC(=S)NC(=O)C1=Cc1ccncc1 | > 4 mM (inactive)
24 | CN1CCC(N2CCOCC2)CC1 | > 4 mM (inactive)

Row | SMILES | Kd
25 | O=c1c2ccccc2oc2ccccc12 | > 4 mM (inactive)
26 | O=C(c1ccccc1)c1ccccc1C(=O)N1CCCC1 | > 4 mM (inactive)
27 | CC(=O)Nc1cnn(Cc2ccc(Br)cc2)c1 | > 4 mM (inactive)
28 | c1ccc2[nH]c(SCc3cscn3)nc2c1 | inactive
29 | OC1(c2ccc(Cl)cc2)CCNCC1 | > 4 mM (inactive)
30 | NC1=C([N+](=O)[O-])C(=O)c2ccccc21 | > 4 mM (inactive)
31 | Cc1cc(NC(=O)c2ccc3c(c2)OCO3)no1 | > 4 mM (inactive)
32 | CC[C@H]1CN2CCc3cc(OC)c(OC)cc3C2C[C@@H]1CC1NCCc2cc(OC)c(OC)cc21 (stereo partly drawn) | > 4 mM (inactive)
33 | CCCCCCCCCCCC[C@H](C(=O)O)[C@@H](C)C(=O)O | > 4 mM (inactive)
34 | CCN1CCc2c(sc(N)c2C(N)=O)C1 | > 4 mM (inactive)
35 | Cc1nnc(SCC(=O)N2CCc3ccccc32)s1 | > 4 mM (inactive)
36 | CCOc1ccc(-c2c(=O)n(O)c3ccccc3[n+]2[O-])cc1 | > 4 mM (inactive)
37 | O=C(NC(O)C(=O)c1ccccc1)c1ccco1 (stereo not drawn) | > 4 mM (inactive)
38 | O=C(O)CSCc1ccc(Cl)cc1 | > 4 mM (inactive)
39 | CN1C(=O)CC(=O)N(C)c2ccccc21 | > 4 mM (inactive)
40 | COc1ccc(-c2ccc(SCC(N)=O)nn2)cc1 | > 4 mM (inactive)
41 | COc1ccccc1N1C(=N)SCC1=O | > 4 mM (inactive)
42 | COc1cc(S(=O)(=O)Nc2cccnc2)ccc1F | > 4 mM (inactive)
43 | CC(=O)Nc1nnc(-c2ccncc2)s1 | > 4 mM (inactive)
44 | CCOC(=O)C1CCN(c2ccc(C#N)cc2)CC1 | > 4 mM (inactive)
45 | O=C1CSC(=Nc2cccc(C(=O)O)c2)N1 | > 4 mM (inactive)
46 | Nc1cccc2cccnc12 | > 4 mM (inactive)
47 | N=C1/C(=C\c2ccccc2)C(=O)N=C2SC=NN12 | > 4 mM (inactive)
48 | Cc1c(CO)cnn1-c1ccccc1 | > 4 mM (inactive)

Row | SMILES | Kd
49 | Cc1ccc(Nc2nc(N)nc(CC#N)n2)cc1 | > 4 mM (inactive)
50 | N=c1c2c3c(sc2ncn1N)CCCC3 | > 4 mM (inactive)
51 | CC(CCC(=O)O)[C@H]1CCC2C3C(C[C@H](O)[C@@]21C)[C@@]1(C)CC[C@@H](O)C[C@H]1C[C@H]3O (stereo partly drawn) | > 4 mM (inactive)
52 | CN1CCN(C(=O)c2ccccc2N)CC1 | > 4 mM (inactive)
53 | CN1C(=O)/C(=C/c2ccc(O)cc2O)SC1=S | > 4 mM (inactive)
54 | OCCNc1nc2ccc(Cl)cc2[nH]1 | > 4 mM (inactive)
55 | COc1ccc(/C=C2/SC(N)=NC2=O)c(OC)c1 | > 4 mM (inactive)
56 | COc1ccccc1NC(=O)/C=N/O | > 4 mM (inactive)
57 | Cc1ccc2cc(C(=O)O)ccc2n1 | > 4 mM (inactive)
58 | O/N=C1/CCCc2nonc21 | > 4 mM (inactive)
59 | O=c1ccc2cc(O)c(O)cc2o1 | > 4 mM (inactive)
60 | NCc1ccc(-c2cccs2)cc1 | > 4 mM (inactive)
61 | COc1ccc(C(=O)NCC(=O)O)cc1 | > 4 mM (inactive)
62 | O=S(=O)(N1CCCCC1)n1nnc2ccccc21 | > 4 mM (inactive) and 385 µM
63 | Cc1noc(C)c1C(=O)N1CCc2ccccc21 | > 4 mM (inactive)
64 | Oc1cccc2[nH]ccc12 | > 4 mM (inactive)
65 | CSc1nnc2c(n1)OC=Nc1ccccc1-2 | > 4 mM (inactive)
66 | OC12CC3CC(CC(C3)C1)C2 | > 4 mM (inactive)
67 | CN1CCN(CC(=O)N2CCc3ccccc32)CC1 | > 4 mM (inactive)
68 | CC(=O)Nc1ccc(NC(C)=O)c(C(F)(F)F)c1 | > 4 mM (inactive)
69 | COc1ccccc1NC(=O)C1CCCCC1 | > 4 mM (inactive)
70 | Fc1ccc(Br)cc1/C=N/n1cnnc1 | > 4 mM (inactive)
71 | COC(=O)CCSCC(=O)Nc1nnc(C)s1 | > 4 mM (inactive)
72 | Cc1cccc(NC(=O)NC(N)=O)c1 | > 4 mM (inactive)

Row | SMILES | Kd
73 | O=S(=O)(Nc1ccc2c(c1)oc1ccccc12)N1CCCCC1 | > 4 mM (inactive)
74 | NCc1csc2ccccc12 | > 4 mM (inactive)
75 | Nc1cccc(NC(=O)c2cccs2)c1 | > 4 mM (inactive)
76 | COc1cc(-c2coc3cc(O[C@@H]4O[C@H](CO)[C@@H](O)[C@H](O)[C@H]4O)c(OC)c(O)c3c2=O)cc(O)c1OC | > 4 mM (inactive)
77 | Cc1ccccc1N1CCN(C(=O)C2CCCCC2)CC1 | > 4 mM (inactive)
78 | O=C(O)c1ccc(CN2CCOCC2)cc1 | > 4 mM (inactive)
79 | Cc1ncoc1C(=O)Nc1ncc([N+](=O)[O-])s1 | > 4 mM (inactive)
80 | CC(=O)Nc1ccn(Cc2c(F)cccc2Cl)n1 | > 4 mM (inactive)
81 | COc1c(OC)c2occc2c2oc(=O)ccc12 | > 4 mM (inactive)
82 | COc1ccc(Cl)cc1NC(=O)C(N)=O | > 4 mM (inactive)
83 | CNC(=S)Nc1ncn(Cc2cccc(F)c2)n1 | > 4 mM (inactive)
84 | O=C(O)C1CN(Cc2ccccc2)CCO1 (stereo not drawn) | > 4 mM (inactive)
85 | C[C@@H]1CC[C@@]2(NC1)O[C@H]1C[C@H]3C4CC=C5C[C@@H](O)CC[C@]5(C)C4CC[C@]3(C)C1[C@@H]2C (stereo partly drawn) | > 4 mM (inactive)
86 | CC(C)(C(N)=O)/[N+]([O-])=C\c1ccccc1 | > 4 mM (inactive)
87 | O=S(=O)(Nc1cccnc1Cl)c1ccccc1 | > 4 mM (inactive)
88 | C[n+]1ccn(C/C(N)=N/O)c1 | > 4 mM (inactive)
89 | Cc1cc(C(=O)Nc2ccccn2)no1 | > 4 mM (inactive)
90 | NCCC(=O)N[C@@H](Cc1cnc[nH]1)C(=O)O | > 4 mM (inactive)
91 | CN1C2CC[C@@H]1CC(OC(=O)[C@H](CO)c1ccccc1)C2 (stereo partly drawn) | > 4 mM (inactive)
92 | COC(=O)Nc1ccc2ncn(C)c(=O)c2c1 | > 4 mM (inactive)
93 | O=S1(=O)NC(=NCc2ccco2)c2ccccc21 | > 4 mM (inactive)
94 | Oc1ccccc1-c1nnco1 | > 4 mM (inactive)
95 | CN1CCCn2c1nc1c2c(=O)[nH]c(=O)n1C | > 4 mM (inactive)
96 | CC1(C)CC[C@]2(C(=O)O)CC[C@]3(C)C(=CCC4[C@@]5(C)CC[C@@H](O)C(C)(C)C5CC[C@]43C)C2C1 (stereo partly drawn) | > 4 mM (inactive)

Row | SMILES | Kd
97 | C/C=C(/C)C(=O)O[C@@H]1[C@H](OC(C)=O)[C@@]2(CO)C(CC1(C)C)C1=CCC3[C@@]4(C)CC[C@H](O[C@@H]5O[C@H](C(=O)O)[C@@H](O[C@@H]6O[C@H](CO)[C@@H](O)[C@H](O)[C@H]6O)[C@H](O)[C@H]5O[C@@H]5O[C@H](CO)[C@@H](O)[C@H](O)[C@H]5O)[C@](C)(CO)C4CC[C@@]3(C)[C@]1(C)C[C@H]2O (stereo partly drawn) | > 4 mM (inactive)
98 | CN1CCC=C(C(=O)O)C1 | > 4 mM (inactive)
99 | O=C(O)c1ccc2nsnc2c1 | > 4 mM (inactive)
100 | COc1cc(-c2nnc(NC(C)=O)o2)cc(OC)c1OC | > 4 mM (inactive)
101 | c1ccc(-n2cnnc2)nc1 | > 4 mM (inactive)
102 | Cc1cc2ncn(S(=O)(=O)N3CCCCC3)c2cc1C | > 4 mM (inactive)
103 | COc1ccc(C2(CN)CCOCC2)cc1OC | > 4 mM (inactive)
104 | CSc1ccc(/C=N/n2c(C)nnc2C)cc1 | > 4 mM (inactive)
105 | COc1ccc(C(N)=O)cc1NC(C)=O | > 4 mM (inactive)
106 | CC(=O)O[C@@H]1CC2C(C)(CC[C@H](O)C2(C)C)C2CC[C@]3(C)C(=CC(=O)O[C@H]3c3ccoc3)C21C (stereo partly drawn) | > 4 mM (inactive)
107 | O=C(O)c1cccc2nsnc12 | > 4 mM (inactive)
108 | Cc1ccc2cc(N)ccc2n1 | > 4 mM (inactive)
109 | Cc1cc(N)on1 | > 4 mM (inactive)
110 | c1ccc(Cn2cccc2)nc1 | > 4 mM (inactive)
111 | COc1ccc(C(=O)O)cc1OC | > 4 mM (inactive)
112 | CCc1noc(C)c1C(=O)N1CCOCC1 | > 4 mM (inactive)
113 | CC(=O)Nc1ccc(S(=O)(=O)NCC2CCCO2)cc1 (stereo not drawn) | > 4 mM (inactive)
114 | Nc1ccc(NS(=O)(=O)c2ccc(N)cc2)cc1 | > 4 mM (inactive)
115 | O=C1CCc2ccccc2CN1 | > 4 mM (inactive)
116 | COc1ccc2[nH]cc(CN(C)C)c2c1 | > 4 mM (inactive)
117 | COC(=O)C[C@@H]1C2(C)C(=O)[C@@H](CC3=C4CC(=O)O[C@@H](c5ccoc5)[C@]4(C)CCC32)[C@H](OC(C)=O)C1(C)C (stereo partly drawn) | > 4 mM (inactive)
118 | OCC(O)Cc1ccc2c(c1)OCO2 (stereo not drawn) | > 4 mM (inactive)
